Data reported in patent US20020193564A1, “Oligomeric chaperone proteins” (priority 1999, published 2002).

Legend:
[1] = system: COS-7, PC12, and SH-SY5Y cells; conditions: treatment with proteasome inhibitor; cited from earlier work
[2] = system: mutant Huntingdon exon 1-expressing PC12 and SH-SY5Y cells; conditions: overexpression; cited from earlier work
COS-7 cells = conditions: overexpression; cited from earlier work
GroES = GroES (Escherichia coli, UniProt P0A6F9); conditions: ELISA, FIG. 5a
Protocol: GroES Binding and Competition Assays by ELISA (Enzyme-Linked Immunosorbant Assay).
Proteins were coated onto plastic microtitre plates (Maxisorb, Nunc) overnight at 4° C. at a concentration of 10 μg/mL in carbonate buffer (50 mM NaHCO3, pH 9.6). Plates were blocked for 1 hour at 25° C. with 2% Marvel in PBS (phosphate buffered saline: 25 mM NaH2PO4, 125 mM NaCl, pH 7.0). GroES, at 10 μg/mL in 100 μL of 10 mM Tris-HCl, 200 mM KCl, pH 7.4, were bound at 25° C. for 1 hour. Bound GroES were detected with rabbit anti-GroES antibodies (Sigma) followed by anti-rabbit immunoglobulins horseradish peroxidase conjugated antibodies (Sigma).

[3] = biological target: T1, heat- and dithiothreitol-denatured mtMDH (Sus scrofa, UniProt P00346); assay: In vitro refolding of denatured mtMDH; type: biochemical, pig; conditions: FIG. 7b
T1 construct: Boehringer-Mannheim); purchased Boehringer-Mannheim; host or cells: pig heart
T1 sequence (P00346 25-338): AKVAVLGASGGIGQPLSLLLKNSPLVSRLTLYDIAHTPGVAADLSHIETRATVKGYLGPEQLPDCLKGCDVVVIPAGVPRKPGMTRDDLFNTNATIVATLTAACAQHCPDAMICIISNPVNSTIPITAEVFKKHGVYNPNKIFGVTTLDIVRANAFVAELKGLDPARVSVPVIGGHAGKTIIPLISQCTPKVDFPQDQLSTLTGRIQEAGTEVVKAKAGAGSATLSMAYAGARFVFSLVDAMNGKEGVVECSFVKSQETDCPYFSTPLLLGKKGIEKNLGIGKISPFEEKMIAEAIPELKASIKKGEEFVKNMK
Protocol: In vitro Refolding Experiments.
Refolding assays of pig heart mitochondrial malate dehydrogenase (mtMDH; Boehringer-Mannheim) and aggregation protection were carried out essentially as described (Peres Ben-Zvi, A. P., Chatellier, J., Fersht, A. R. & Goloubinoff, P. (1998) Proc. Natl. Acad. Sci. U.S.A. 95, 15275-15280). The concentrations of MC7 used were between 8-16 μM (reporter to protomer).

bacteriophage λ = assay: Growth of bacteriophage λ in transformed groEL strains; type: cell-based, bacteriophage λ (b2cI) in E. coli; conditions: SV1 (groE^+)
Text: The E. Coli strains used in this study were: C41(DE3), a mutant of BL21(DE3) capable of expressing toxic genes (Miroux, B. & Walker, J. E. (1996) J. Mol. Biol. 260, 289-298); SV2 (B178groEL44), SV3 (B178groEL59) and SV6 (B178groEL673): isogenic strains carrying temperature-sensitive alleles of groEL; SV1(=B178) (Georgopoulos, C., Hendrix, R. W., Casjens, S. R. & Kaiser, A. D. (1973) J. Mol. Biol. 76, 45-60), A190 (ΔgroEL::kan^R) [pBAD-EL] (Ivic, A., Olden, D., Wallington, E. J. & Lund, P. A. (1997) Gene 194, 1-8), and TG1 (Gibson, T. J. (1984) Ph.D. thesis, University of Cambridge, U.K). Bacteriophage λb2cI (Zeilstra-Ryalls, J., Fayet, O., Baird, L. & Georgopoulos, C. (1993) J. Bacteriol. 175, 1134-1143) was used according to standard methods (Arber, W., Enquist, L., Hohn, B., Murray, N. E. & Murray, K. (1983) in Lambda II., ed. R. W. Hendrix, J. W. r., F. W. Stahl and R. A. Weisberg (Cold Spring Harbor Laboratory, Cold Spring Harbor, N.Y.), pp. 433-466); plaque formation was assayed at 30° C. T4D0, a derivative of bacteriophage T4 (Zeilstra-Ryalls, J., Fayet, O., Baird, L. & Georgopoulos, C. (1993) J. Bacteriol. 175, 1134-1143), was used according to standard methods (Karam, J. D. (1994) Molecular biology of bacteriophage T4. (American Society for Microbiology, Washington, D.C.)); plaque formation was assayed at 37° C.

Sequence of GroES (P0A6F9 whole entry): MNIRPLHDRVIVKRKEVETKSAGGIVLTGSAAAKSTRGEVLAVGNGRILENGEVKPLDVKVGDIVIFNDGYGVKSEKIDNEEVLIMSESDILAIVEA

For `CC(=O)N[C@@H](CSC(=O)[C@]1([C@@H](O)C(C)C)NC(=O)[C@H](C)[C@@H]1O)C(=O)O` [lactacystin], the “proportion of cells with inclusions of mutant huntingtin exon 1” value [1] is given as “increased the proportion of cells with inclusions”.

For HDJ-2/HSDJ: a human HSP40 homologue, the “proportion of cells with inclusions / inclusion formation” value [2] is given as “did not modify inclusion formation” and the “inclusion formation in COS-7 cells” value (COS-7 cells) is given as “increased inclusion formation”.

B1: GroEL(191-376): monomeric minichaperone, apical domain of GroEL, residues 191 to 376 (protein, UniProt P0A6F5 191-376, looked up, fragment)
chain: EGMQFDRGYLSPYFINKPETGAVELESPFILLADKKISNIREMLPVLEAVAKAGKPLLIIAEDVEGEALATLVVNTMRGIVKVAAVKAPGFGDRRKAMLQDIATLTGGTVISEEIGMELEKATLEDLGQAKRVVINKDTTTIIDGVGEEAAIQGRVAQIRQQIEEATSDYDREKLQERVAKLAGGV
modifications: apical domain
In the case of B1, the “Binding to GroES” value (GroES) is reported as “did not detectably bind”, the “enhancing the refolding rate of mtMDH” value [3] is reported as “ineffective in enhancing the refolding rate” and the “Effect of over-expression on λ growth / plaque counts” value (bacteriophage λ) is reported as “no effect on plaque counts”.
